Measurements published in the supplement of paper PMC10307832.

Assays:
Assay in all cases: relative viability (nuclei count vs DMSO), 5 days (fraction); higher = more cells survive
[1] = compound: C[As](C)SC[C@H](NC(=O)CC[C@H](N)C(=O)O)C(=O)NCC(=O)O [Darinaparsin] + CC(=O)c1c(C)c2cnc(Nc3ccc(N4CCNCC4)cn3)nc2n(C2CCCC2)c1=O [Palbociclib] (partner 0.5 µM)
Method in brief: (§1)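 Lung cancer cell lines in 1536-well plates were dosed by pin tool the day after seeding, either with one drug alone or with a fixed anchor-drug dose plus five library-drug doses (not always all listed) in √10 steps. After 5 days, cells were fixed and their nuclei stained in one step (final 0.05% Triton X-100, 1% formaldehyde, 1 ug/ml Hoechst), then counted on 4× images. Relative viability is the nuclei count in treated wells divided by that in vehicle wells. Values are medians of duplicate plates.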

[2] = compound: C[As](C)SC[C@H](NC(=O)CC[C@H](N)C(=O)O)C(=O)NCC(=O)O [Darinaparsin] + Nc1ncn([C@H]2C[C@H](O)[C@@H](CO)O2)c(=O)n1 [Decitabine] (partner 2 µM)
Method in brief: as §1

[3] = compound: C[As](C)SC[C@H](NC(=O)CC[C@H](N)C(=O)O)C(=O)NCC(=O)O [Darinaparsin] + CS(=O)(=O)N1CCN(Cc2cc3nc(-c4cccc5[nH]ncc45)nc(N4CCOCC4)c3s2)CC1 [Pictilisib] (partner 1 µM)
Method in brief: as §1

QS11 + Lapatinib = compound: C1CC2=C(C1)C=C(C=C2)OC3=NC(=C4C(=N3)N(C=N4)CC5=CC=C(C=C5)C6=CC=CC=C6)N[C@@H](CC7=CC=CC=C7)CO [QS11] + CS(=O)(=O)CCNCc1ccc(-c2ccc3ncnc(Nc4ccc(OCc5cccc(F)c5)c(Cl)c4)c3c2)o1 [Lapatinib] (partner 2 µM)
Method in brief: as §1

| Cell Line | relative viability ([1]; first compound 0.8 µM) | relative viability ([1]; first compound 8 µM) | relative viability ([2]; first compound 0.8 µM) | relative viability ([2]; first compound 8 µM) | relative viability ([1]; first compound 0.08 µM) | relative viability ([1]; first compound 2.53 µM) | relative viability ([3]; first compound 0.08 µM) | relative viability ([3]; first compound 0.8 µM) | relative viability ([3]; first compound 2.53 µM) | relative viability ([3]; first compound 8 µM) | relative viability ([2]; first compound 0.08 µM) | relative viability ([2]; first compound 2.53 µM) | relative viability (QS11 + Lapatinib; first compound 0.08 µM) | relative viability (QS11 + Lapatinib; first compound 0.253 µM) | relative viability (QS11 + Lapatinib; first compound 0.8 µM) | relative viability (QS11 + Lapatinib; first compound 2.53 µM) | relative viability (QS11 + Lapatinib; first compound 8 µM) |
| --- | --- | --- | --- | --- | --- | --- | --- | --- | --- | --- | --- | --- | --- | --- | --- | --- | --- |
| NCI-H1648 | 0.242 | 0.243 | 0.474 | 0.494 |  |  |  |  |  |  |  |  |  |  |  |  |  |
| NCI-H1650 | 0.321 | 0.375 | 0.41 | 0.359 | 0.377 | 0.325 | 0.666 | 0.503 | 0.623 | 0.59 | 0.325 | 0.397 | 0.746 | 0.643 | 0.673 | 0.731 | 0.708 |
| NCI-H647 | 0.406 | 0.561 | 0.39 | 0.476 | 0.467 | 0.357 | 0.449 | 0.396 | 0.488 | 0.47 | 0.444 | 0.346 | 0.939 | 1.12 | 0.916 | 1.1 | 0.711 |
| NCI-H1703 |  |  |  |  |  |  | 0.236 | 0.271 | 0.261 | 0.268 |  |  | 0.986 | 1.41 | 1.04 | 0.974 | 1.1 |
| A-427 | 0.494 | 0.549 | 0.517 | 0.493 | 0.585 | 0.567 | 0.893 | 0.761 | 0.757 | 0.856 | 0.569 | 0.581 | 0.881 | 1.08 |  | 1.12 | 1.07 |
| NCI-H1915 | 0.52 | 0.539 | 0.239 | 0.256 | 0.573 | 0.502 | 0.99 | 0.902 | 0.955 | 0.991 | 0.288 | 0.254 | 1.04 | 1.02 |  | 1.02 | 0.802 |
| NCI-H1355 | 0.398 | 0.387 | 0.357 | 0.369 | 0.445 | 0.322 | 0.445 | 0.37 | 0.451 | 0.456 | 0.38 | 0.304 | 1.08 | 0.792 | 0.688 | 0.997 | 1.07 |
| HCC-15 | 0.773 | 0.882 | 0.565 | 0.722 | 0.639 | 0.723 | 0.879 | 0.71 | 0.72 | 0.92 | 0.727 | 0.643 | 0.874 | 0.952 |  | 0.883 | 0.748 |
| ChaGo-K-1 | 0.958 | 1.06 | 0.499 | 0.577 | 0.95 | 0.856 | 0.947 | 0.693 | 0.732 | 0.662 | 0.464 | 0.506 |  |  |  |  |  |
| LCLC-103H | 0.427 | 0.533 | 0.722 | 0.8 | 0.49 | 0.49 | 0.52 | 0.566 | 0.593 | 0.604 | 0.788 | 0.715 |  |  |  |  |  |
| NCI-H1563 |  |  |  |  |  |  | 0.693 | 0.63 | 0.594 | 0.602 |  |  | 0.988 | 0.892 | 1.12 | 0.972 | 0.891 |
| NCI-H2228 | 0.881 | 0.998 |  |  | 0.805 | 0.419 | 0.401 | 0.344 | 0.473 | 0.544 |  |  | 1.12 | 0.826 | 1.17 | 1.54 | 1.09 |
